{
  "source": "paper PMC9127750",
  "about": "“Structure-based design of CDC42 effector interaction inhibitors for the treatment of cancer” (Cell reports, 2022)",
  "system": "WM3248 melanoma cells, 486 antibodies",
  "assay": "Reverse phase protein arrays (RPPA)",
  "assay_type": "cell-based, Human",
  "details": "20, normalized to 0",
  "from_the_text": "Pellets were snap frozen in liquid nitrogen and shipped to MD Anderson Cancer Center core RPPA facility for RPPA analysis (Table S5). Three biological replicates for each sample were generated.\nNomenclatures on the RPPA heatmaps: name_of_antibody.species_of_antibody.status_of_antibody. V - antibody validated; C - validation of antibody in progress; Q - antibody nonspecific; E – under evaluation; antibodies raised in M - mouse, G - goat, R - rabbit, or T - rat.",
  "note": "Values joined by “and” are separate entries in the source; they are usually repeats but may differ in a detail not shown here. Equal values may be shown once.",
  "data": [
    {"molecule": "CN(C)c1cccc(Nc2cc(-c3ccccc3)nc(C3CCNCC3)n2)c1", "note": "[ARN22089, N1,N1-dimethyl-N3-(6-phenyl-2-(piperidin-4-yl)pyrimidin-4-yl)benzene-1,3-diamine]", "values": [
      {"measurement": "HER2.M.V Norm_20 Average", "setting": "average", "result": 0.995},
      {"measurement": "HER2_pY1248.R.V Norm_20 Average", "setting": "average", "result": 1.030},
      {"measurement": "HER3.R.V Norm_20 Average", "setting": "average", "result": 0.904},
      {"measurement": "HER3_pY1289.R.C Norm_20 Average", "setting": "average", "result": 1.084},
      {"measurement": "Heregulin.R.V Norm_20 Average", "setting": "average", "result": 1.046},
      {"measurement": "eEF2.R.C Norm_20 Average", "setting": "average", "result": 1.639},
      {"measurement": "eEF2K.R.V Norm_20 Average", "setting": "average", "result": 1.409},
      {"measurement": "eIF4E.R.V Norm_20 Average", "setting": "average", "result": 1.114},
      {"measurement": "eIF4G.R.C Norm_20 Average", "setting": "average", "result": 1.165},
      {"measurement": "DNMT1.R.V Norm_20", "setting": "replicates 1-3", "result": "0.937 and 0.801"},
      {"measurement": "DRP1.R.V Norm_20", "setting": "replicates 1-3", "result": "1.019 and 0.894 and 0.979"},
      {"measurement": "DUSP4.R.V Norm_20", "setting": "replicates 1-3", "result": "0.537 and 0.626 and 1.006"},
      {"measurement": "DUSP6.R.C Norm_20", "setting": "replicates 1-3", "result": "1.405 and 1.064 and 2.195"},
      {"measurement": "DYRK1B.R.C Norm_20", "setting": "replicates 1-3", "result": "0.868 and 0.959 and 0.907"},
      {"measurement": "Dvl3.R.V Norm_20", "setting": "replicates 1-3", "result": "0.990 and 1.118 and 0.985"},
      {"measurement": "E2F1.R.V Norm_20", "setting": "replicates 1-3", "result": "1.446 and 1.251"},
      {"measurement": "E.Cadherin.R.V Norm_20", "setting": "replicates 1-3", "result": "0.696 and 0.873 and 0.994"},
      {"measurement": "EGFR.R.V Norm_20", "setting": "replicates 1-3", "result": "1.083 and 1.189 and 1.125"},
      {"measurement": "EGFR_pY1068.R.C Norm_20", "setting": "replicates 1-3", "result": "0.892 and 0.889 and 0.961"},
      {"measurement": "EGFR_pY1173.R.V Norm_20", "setting": "replicates 1-3", "result": "1.079 and 1.019 and 1.046"},
      {"measurement": "EMA.M.C Norm_20", "setting": "replicates 1-3", "result": "0.566 and 0.868 and 0.914"},
      {"measurement": "ENY2.M.C Norm_20", "setting": "replicates 1-3", "result": "0.866 and 0.944 and 1.047"},
      {"measurement": "ER.a.R.V Norm_20", "setting": "replicates 1-3", "result": "0.939 and 0.862 and 1.078"},
      {"measurement": "ER.a_pS118.R.V Norm_20", "setting": "replicates 1-3", "result": "1.167 and 1.838 and 0.928"},
      {"measurement": "ERCC1.R.C Norm_20", "setting": "replicates 1-3", "result": "0.964 and 0.974"},
      {"measurement": "ERCC5.R.C Norm_20", "setting": "replicates 1-3", "result": "1.290 and 0.989 and 1.051"},
      {"measurement": "ERRalpha.R.V Norm_20", "setting": "replicates 1-3", "result": "0.831 and 1.056 and 1.002"},
      {"measurement": "EVI1.R.V Norm_20", "setting": "replicates 1-3", "result": "0.975 and 0.917"},
      {"measurement": "Enolase.1.R.V Norm_20", "setting": "replicates 1-3", "result": "1.030 and 1.152"},
      {"measurement": "Enolase.2.R.V Norm_20", "setting": "replicates 1-3", "result": "0.990 and 0.970 and 0.883"},
      {"measurement": "EphA2.R.V Norm_20", "setting": "replicates 1-3", "result": "0.706 and 0.773 and 0.765"},
      {"measurement": "EphA2_pS897.R.C Norm_20", "setting": "replicates 1-3", "result": "0.536 and 0.635 and 0.720"},
      {"measurement": "EphA2_pY588.R.C Norm_20", "setting": "replicates 1-3", "result": "0.930 and 1.018 and 0.973"},
      {"measurement": "Erk5.R.V Norm_20", "setting": "replicates 1-3", "result": "0.948 and 0.789 and 1.013"},
      {"measurement": "Ets.1.R.V Norm_20", "setting": "replicates 1-3", "result": "1.373 and 1.347 and 1.417"},
      {"measurement": "FABP5.R.C Norm_20", "setting": "replicates 1-3", "result": "1.102 and 1.223 and 1.428"},
      {"measurement": "FAK.R.C Norm_20", "setting": "replicates 1-3", "result": "0.837 and 0.917"},
      {"measurement": "FAK_pY397.R.V Norm_20", "setting": "replicates 1-3", "result": "0.847 and 0.989 and 0.940"},
      {"measurement": "FANCD2.R.V Norm_20", "setting": "replicates 1-3", "result": "0.831 and 0.901 and 0.823"},
      {"measurement": "FASN.R.V Norm_20", "setting": "replicates 1-3", "result": "0.802 and 0.983"},
      {"measurement": "FGF.basic.R.C Norm_20", "setting": "replicates 1-3", "result": "0.939 and 0.836 and 1.240"},
      {"measurement": "FN14.R.C Norm_20", "setting": "replicates 1-3", "result": "1.082 and 0.902 and 1.335"},
      {"measurement": "FOXM1.R.V Norm_20", "setting": "replicates 1-3", "result": "0.995 and 0.889 and 0.924"},
      {"measurement": "FOXO3.R.V Norm_20", "setting": "replicates 1-3", "result": "1.160 and 1.151 and 0.915"},
      {"measurement": "FRS2.alpha_pY196.R.V Norm_20", "setting": "replicates 1-3", "result": "0.925 and 1.195 and 1.058"},
      {"measurement": "FTO.R.V Norm_20", "setting": "replicates 1-3", "result": 0.992},
      {"measurement": "Fibronectin.R.V Norm_20", "setting": "replicates 1-3", "result": "1.153 and 1.290 and 1.137"},
      {"measurement": "FoxO3a_pS318_S321.R.C Norm_20", "setting": "replicates 1-3", "result": "1.105 and 0.940"},
      {"measurement": "G6PD.R.V Norm_20", "setting": "replicates 1-3", "result": "0.877 and 1.061 and 0.923"},
      {"measurement": "GATA3.M.V Norm_20", "setting": "replicates 1-3", "result": "1.203 and 1.452 and 1.301"},
      {"measurement": "GATA6.R.V Norm_20", "setting": "replicates 1-3", "result": "0.945 and 0.991 and 0.928"},
      {"measurement": "GCLC.R.C Norm_20", "setting": "replicates 1-3", "result": "0.882 and 0.967 and 1.220"},
      {"measurement": "GCLM.R.V Norm_20", "setting": "replicates 1-3", "result": "0.988 and 1.024 and 0.965"},
      {"measurement": "GCN5L2.R.V Norm_20", "setting": "replicates 1-3", "result": "0.974 and 0.944"},
      {"measurement": "GGPS1.M.V Norm_20", "setting": "replicates 1-3", "result": "0.920 and 0.992 and 1.155"},
      {"measurement": "GRB2.R.V Norm_20", "setting": "replicates 1-3", "result": "0.992 and 0.862 and 0.948"},
      {"measurement": "GRB7.R.V Norm_20", "setting": "replicates 1-3", "result": "0.909 and 0.898"},
      {"measurement": "GSK.3B.R.C Norm_20", "setting": "replicates 1-3", "result": "0.896 and 0.924"},
      {"measurement": "GSK.3a.b.M.V Norm_20", "setting": "replicates 1-3", "result": "0.918 and 0.992"},
      {"measurement": "GSK.3a.b_pS21_S9.R.V Norm_20", "setting": "replicates 1-3", "result": "1.411 and 1.207"},
      {"measurement": "Gab2.R.V Norm_20", "setting": "replicates 1-3", "result": "1.447 and 1.019"},
      {"measurement": "Gli1.R.C Norm_20", "setting": "replicates 1-3", "result": "0.898 and 0.922 and 1.028"},
      {"measurement": "Gli3.R.C Norm_20", "setting": "replicates 1-3", "result": "1.237 and 1.346 and 1.321"},
      {"measurement": "Glucocorticoid.Receptor.R.V Norm_20", "setting": "replicates 1-3", "result": "1.227 and 1.295 and 0.987"},
      {"measurement": "Glutamate.D1.2.R.V Norm_20", "setting": "replicates 1-3", "result": 1.198},
      {"measurement": "Glutaminase.R.C Norm_20", "setting": "replicates 1-3", "result": "1.026 and 1.144 and 1.364"},
      {"measurement": "Granzyme.B.R.V Norm_20", "setting": "replicates 1-3", "result": "1.284 and 1.028"},
      {"measurement": "Grp75.R.C Norm_20", "setting": "replicates 1-3", "result": "1.594 and 1.052 and 0.939"},
      {"measurement": "Gys.R.V Norm_20", "setting": "replicates 1-3", "result": "0.807 and 0.941 and 1.104"},
      {"measurement": "Gys_pS641.R.V Norm_20", "setting": "replicates 1-3", "result": "0.671 and 0.818 and 1.079"},
      {"measurement": "H2AX_pS139.R.C Norm_20", "setting": "replicates 1-3", "result": "1.188 and 2.081 and 1.030"},
      {"measurement": "H2AX_pS140.M.C Norm_20", "setting": "replicates 1-3", "result": "1.001 and 1.667 and 1.028"},
      {"measurement": "HER2.M.V Norm_20", "setting": "replicates 1-3", "result": "0.977 and 0.952 and 1.056"},
      {"measurement": "HER2_pY1248.R.V Norm_20", "setting": "replicates 1-3", "result": "0.902 and 1.119"},
      {"measurement": "HER3.R.V Norm_20", "setting": "replicates 1-3", "result": "0.864 and 0.935 and 0.913"},
      {"measurement": "HER3_pY1289.R.C Norm_20", "setting": "replicates 1-3", "result": "1.059 and 1.124"},
      {"measurement": "HES1.R.V Norm_20", "setting": "replicates 1-3", "result": "1.224 and 0.849 and 1.063"},
      {"measurement": "Heregulin.R.V Norm_20", "setting": "replicates 1-3", "result": "1.048 and 1.050"},
      {"measurement": "eEF2.R.C Norm_20", "setting": "replicates 1-3", "result": "1.328 and 1.602 and 1.986"},
      {"measurement": "eEF2K.R.V Norm_20", "setting": "replicates 1-3", "result": "1.469 and 1.590 and 1.169"},
      {"measurement": "eIF4E.R.V Norm_20", "setting": "replicates 1-3", "result": "1.107 and 0.843 and 1.392"}
    ]}
  ]
}
